Measured values: patent US20240358021A1, “COMPOSITION COMPRISING POTASSIUM BICARBONATE AND USE THEREOF FOR TREATING AND/OR PROTECTING CROPS” (SCEA DU CHATEAU MONTROSE, priority 2021, published 2024)

Key:
[1] = system: downy mildew (P. viticola) strains PV221, PV413-1, PV1538-1; experiment: In vitro efficacy test on vine leaf discs (Example 2); assay type: cell-based, Plasmopara viticola; details: mean over downy mildew strains; Example 2 method
[2] = system: downy mildew, powdery mildew and vine rot

SMILES	Mean IC50 (CI 50) [1]	Mean MIC (CMI) [1]	effect on phytopathogens, in words [2]
O=C([O-])O.[K+] [KHCO3, potassium bicarbonate]	1000 µg/mL	5600 µg/mL	significant
O=C([O-])O.[Na+] [NaHCO3, sodium bicarbonate]	1850 µg/mL	10000 µg/mL	
